Measurements from patent US9018392B1, “Compounds, compositions and methods for crop enhancement” (Active AgriProducts Inc., priority 2014, dated 2015).

Tests used:
Type in all cases: in vivo
wheat [1] = assay: Experiment 1 wheat seed germination, laboratory conditions, seedling trays; details: 20 ppm and 40 ppm seed treatment
Procedure: (§1) For the Experiments described below, application of 1,2-dimethyl-4-dimethylaminomethyl-5-hydroxy benzimidazole (referred to herein as INTRINSIC™) was by way of seed treatment. Treated seeds were prepared by mixing 1.0 kg of seed and 2.0 mL of an aqueous solution of INTRINSIC™ comprising 0.1% potassium hydroxide in a ZIPLOC™ bag. Control seeds were prepared by mixing 1.0 kg of seed and 2.0 mL of aqueous 0.1% potassium hydroxide solution in a ZIPLOC™ bag. The seeds and solutions were sufficiently mixed to wet the seeds. The seeds were dried after being wetted. […] Experiment 1 tested the effects of 20 ppm and 40 ppm INTRINSIC™ on wheat seed germination under laboratory conditions. Treated and control seeds were grown in seedling trays lined with moistened tissue.

wheat [2] = assay: Experiment 2(a) wheat root growth, laboratory conditions, seedling trays; details: 20 ppm and 40 ppm seed treatment; 72 hours; FIG. 2(a)
Procedure: as §1, with “Experiment 2(a)” for “Experiment 1”, “wheat root growth” for “wheat seed germination”, “tissue. Experiment 2(b) tested the effects of 40 ppm INTRINSIC™ on wheat root growth under greenhouse conditions. Experiment 2(c) tested the effects of 40 ppm INTRINSIC™ on wheat root growth under laboratory conditions. Treated and control seeds were grown in agar culture medium. Results at 8 days are shown Figure in FIG. 2(c).” for “tissue.”

wheat [3] = assay: Experiment 2(b) wheat root growth, greenhouse conditions; details: 40 ppm seed treatment, 10 days, FIG. 2(b)
Procedure: as §1, with “Experiment 2(a)” for “Experiment 1”, “wheat root growth” for “wheat seed germination”, “tissue. Experiment 2(b) tested the effects of 40 ppm INTRINSIC™ on wheat root growth under greenhouse conditions. Experiment 2(c) tested the effects of 40 ppm INTRINSIC™ on wheat root growth under laboratory conditions. Treated and control seeds were grown in agar culture medium. Results at 8 days are shown Figure in FIG. 2(c).” for “tissue.”

wheat [4] = assay: Experiment 6 wheat growth, field test conditions; details: 20 ppm and 40 ppm, alone and combined with CRUISER MAXX™ and DIVIDEND™, 10 days
Procedure: For the Experiments described below, application of 1,2-dimethyl-4-dimethylaminomethyl-5-hydroxy benzimidazole (referred to herein as INTRINSICTM) was by way of seed treatment. Treated seeds were prepared by mixing 1.0 kg of seed and 2.0 mL of an aqueous solution of INTRINSICTM comprising 0.1% potassium hydroxide in a ZIPLOCTM bag. Control seeds were prepared by mixing 1.0 kg of seed and 2.0 mL of aqueous 0.1% potassium hydroxide solution in a ZIPLOCTM bag. The seeds and solutions were sufficiently mixed to wet the seeds. The seeds were dried after being wetted. […] Experiment 6 tested the effects of 20 ppm and 40 ppm INTRINSICTM, alone and combined with known seed treatments (CRUISER […] and […], from SyngentaTM Canada Inc., applied per manufacturer's recommendations), on wheat growth under field test conditions.

canola [5] = assay: Experiment 8 canola growth, field test conditions, second site; details: 10 days
Procedure: (§2) For the Experiments described below, application of 1,2-dimethyl-4-dimethylaminomethyl-5-hydroxy benzimidazole (referred to herein as INTRINSIC™) was by way of seed treatment. Treated seeds were prepared by mixing 1.0 kg of seed and 2.0 mL of an aqueous solution of INTRINSIC™ comprising 0.1% potassium hydroxide in a ZIPLOC™ bag. Control seeds were prepared by mixing 1.0 kg of seed and 2.0 mL of aqueous 0.1% potassium hydroxide solution in a ZIPLOC™ bag. The seeds and solutions were sufficiently mixed to wet the seeds. The seeds were dried after being wetted. […] Experiments 7 and 8 tested the effects of 20 ppm and 40 ppm INTRINSIC™, on canola growth under field test conditions.

canola [6] = assay: Experiment 10 canola yield, field test conditions, first site; details: 20 ppm and 40 ppm seed treatment, crop maturation (approximately 90 days)
Procedure: as §2, with “10” for “7”, “11” for “8”, “INTRINSIC™” for “INTRINSIC™,”, “yield” for “growth”, “conditions. FIGS. 10(a) and 10(b) display yield results at crop maturation (approximately 90 days) at a first site, showing greater yield crops from treated seeds compared to crops from control seeds. FIGS. 11(a) and 11(b) display yield results at crop maturation (approximately 90 days) at a second site, again showing greater yield crops from treated seeds compared to crops from control seeds.” for “conditions.”

canola [7] = assay: Experiment 11 canola yield, field test conditions, second site; details: 20 ppm and 40 ppm seed treatment, crop maturation (approximately 90 days)
Procedure: as §2, with “10” for “7”, “11” for “8”, “INTRINSIC™” for “INTRINSIC™,”, “yield” for “growth”, “conditions. FIGS. 10(a) and 10(b) display yield results at crop maturation (approximately 90 days) at a first site, showing greater yield crops from treated seeds compared to crops from control seeds. FIGS. 11(a) and 11(b) display yield results at crop maturation (approximately 90 days) at a second site, again showing greater yield crops from treated seeds compared to crops from control seeds.” for “conditions.”

soy bean = assay: Experiment 12 soy bean yield, field test conditions; details: 20 ppm and 40 ppm seed treatment; crop maturation (approximately 90 days)
Procedure: as §2, with “Experiment 12” for “Experiments 7 and 8”, “INTRINSIC™” for “INTRINSIC™,”, “soy bean yield” for “canola growth”, “conditions. FIGS. 12(a) and 12(b) display yield results at crop maturation (approximately 90 days), showing greater yield crops from treated seeds compared to crops from control seeds.” for “conditions.”

[8] = 20 ppm and 40 ppm seed treatment
[9] = 40 ppm seed treatment, another set of tests

Cc1nc2c(CN(C)C)c(O)ccc2n1C [INTRINSIC™, 1,2-dimethyl-4-dimethylaminomethyl-5-hydroxy benzimidazole]
greater yield: canola yield compared to crops from control seeds (canola [6]) | canola yield compared to crops from control seeds (canola [7]) | soy bean yield compared to crops from control seeds (soy bean)
longer shoots: shoot length compared to control seedlings (wheat [1]; 48 h, 72 h and 96 h) | shoot length compared to control seedlings (wheat [2]) | shoot length compared to control seedlings (wheat [3])
greater number of roots: number of roots compared to control seedlings (wheat [1]; 48 h, 72 h and 96 h) | number of roots compared to control seedlings (wheat [2]) | number of roots compared to control seedlings (wheat [3])
greater number: number of wheat seeds broken open compared to control (wheat [1]; 24 hours)
significant increases: root length compared to control seedlings (wheat [4]) | root surface area compared to control seedlings (wheat [4]) | root weight compared to control seedlings (wheat [4]; another set of tests) | shoot weight compared to control seedlings (wheat [4]; another set of tests) | root length compared to control seedlings (canola [5]; [8]) | root surface area compared to control seedlings (canola [5]; [8]) | root weight compared to control seedlings (canola [5]; [9]) | shoot weight compared to control seedlings (canola [5]; [9])
longer roots: root length compared to control seedlings (wheat [1]; 48 h, 72 h and 96 h) | root length compared to control seedlings (wheat [2]) | root length compared to control seedlings (wheat [3])
